{"source": "paper PMC8402032", "about": "“Unsymmetric Cisplatin-Based Pt(IV) Conjugates Containing a PARP-1 Inhibitor Pharmacophore Tested on Malignant Pleural Mesothelioma Cell Lines” (Molecules, 2021)", "format_in_all_cases": "cell-based, human", "key": {"[1]": {"test_system": "MSTO-211H multicellular spheroids (MCS)", "assay": "Apoptosis in MSTO-211H multicellular spheroids", "settings": "MSTO-211H MCS, 10 μM, 72 h; spheroid morphology, PARP-1 cleavage, BIM and PUMA induction", "method": "The capability of compound 6 to induce apoptosis was confirmed also when MSTO-211H cells were cultured as multicellular spheroids (MCSs). MCSs and other similar 3D cultures represent an improvement of classical 2D conditions, having a more complex architectural structure and better bio-mimicking of the in vivo microenvironment. Although they suffer many of the limitations of the 2D cultures, they are a powerful tool to narrow down the gap between the in vitro and in vivo models.\nMulticellular spheroids were generated in non-adsorbent round-bottomed 96-well plates, as previously described. The 96-well plates were coated with a 1:24 dilution of polyHEMA (120 mg mL^−1) in 95% ethanol and dried at 37 °C for 24 h. Before use, plates were sterilized by UV light for 30 min. For generation of multicellular spheroids, 1 × 10^4 cells were added into each well of a polyHEMA-coated 96-well plate and placed in a 37 °C humidified incubator with 5% CO2. Every 24 h, 50% of supernatant was replaced with fresh medium.\nFigure 5 Compound 6 induces apoptosis in MSTO-211H multicellular spheroids (MCS). (A) Representative microscope images of MCS treated for 72 h with diluent (Ctrl) or 10 μM 6. Scale bar = 100 μm. (B) Representative Western blot showing PARP-1 cleavage in MSTO-211H MCS treated with 6. Tubulin was used as loading control. […]"}, "[2]": {"test_system": "MSTO-211H (biphasic phenotype) malignant pleural mesothelioma cells", "assay": "Cell viability assay (Trypan blue dye exclusion), MSTO-211H", "settings": "72 h treatment", "method": "(§1) Complexes 6–9 were tested on a panel of human MPM cell lines together with CDDP and SAA1, added for comparison (Table 1). The half-maximal inhibitory concentration, IC50, was determined on MSTO-211H (biphasic phenotype), REN (epithelioid), BR95 (epithelioid), and MM98 (sarcomatoid) cancer cell lines to identify the most promising Pt(IV) conjugate to be further investigated. To determine the number of viable cells, the use of the dye exclusion assay was preferred to the colorimetric assay because of the heterogeneity in the energy metabolism between the different MPM cell lines. This may justify minor differences with respect to the previously published IC50 for CDDP [40].\n(§2) Cells were seeded at a density of 10 × 10^4 cells per well in 6-well plates in RPMI medium supplemented with 10% fetal bovine serum (FBS), 100 μg mL^−1 streptomycin, and 10 μg mL^−1 penicillin and incubated overnight at 37 °C in a humidified environment containing 5% CO2 to allow adherence. Cisplatin was dissolved in 0.9% w/v aqueous NaCl brought to pH = 3 with HCl (final stock concentration 1 mM). The Pt(IV) complexes were dissolved in DMSO (final stock concentration 5 mM); the resulting solutions were microfiltered (0.45 μm) and their Pt content was checked by ICP-MS (see Section 3.5.2). These mother solutions were diluted in complete medium to the required concentration range.\n(§3) Following 72 h of treatment with the diluent of the compound (Ctrl) or different doses of the Pt compounds, cells were trypsinized and stained with Trypan blue. The number of cells considered viable (unstained cells) was counted in a Bürker haemocytometer within 5 min after staining."}, "[3]": {"test_system": "BR95 (epithelioid) malignant pleural mesothelioma cells", "assay": "Cell viability assay (Trypan blue dye exclusion), BR95", "settings": "72 h treatment", "method": "as §1, §2, §3"}, "[4]": {"test_system": "MSTO-211H cells", "assay": "Cell uptake (intracellular Pt by ICP-MS)", "settings": "10 μM, 4 h treatment, mean ± sd", "method": "Cellular accumulation of compounds 6–9 was evaluated by means of the intracellular Pt uptake after 4 h treatment of MSTO-211H cells and expressed as ng Pt per 10^6 cells (Table 1). As expected, the Fmoc protection of 6 and 7 enhances the lipophilicity of the complexes, facilitating their cell uptake. Also the elongation of the organic linker from -(CH2)2- to -(CH2)6- increases (to a minor extent) the lipophilicity in 7 and 9 with respect to 6 and 8.\nMSTO-211H cells were seeded in […] Petri dishes and challenged with the compounds and mixtures under investigations (10 μM) in complete medium. At the end of the exposure, cells were washed three times with phosphate buffered saline (PBS) and detached from the Petri dishes using 0.05% Trypsin 1X + 2% EDTA (HyClone, Thermo Fisher). The cells were harvested in fresh complete medium and an automatic cell counting device (Countess®, Life Technologies, Carlsbad, CA, USA) was used to measure the number and the mean diameter from every cell count. The harvested cells were transferred into a borosilicate glass tube and centrifuged at 1100× g rpm for 5 min at room temperature. The supernatant was carefully removed by aspiration, but about 200 μL of the supernatant was left in order to limit the cellular loss. Finally, the cellular pellets were stored at −80 °C. Platinum content determination was performed by ICP-MS (Thermo Optek X Series 2). Complete mineralization was obtained by the addition of 70% w/w HNO3 to each sample (after defrosting), followed by incubation for 1 h at 60 °C in an ultrasonic bath. Before the ICP-MS measurement, the HNO3 was diluted to a final 1% concentration. The instrumental settings were optimized to yield maximum sensitivity for platinum, and the most abundant isotopes of Pt (m/z = 195) and In (m/z = 115, used as internal standard) were quantified. The level of Pt found in cells after the treatment was normalized to the cell number and expressed as ng of Pt per 10^6 cells."}, "[5]": {"test_system": "REN (epithelioid) malignant pleural mesothelioma cells", "assay": "Cell viability assay (Trypan blue dye exclusion), REN", "settings": "72 h treatment", "method": "as §1, §2, §3"}}, "data": [{"compound": "CC(=O)[O][Pt]([NH2])([NH2])([Cl])([Cl])[O]C(=O)CCNC(=O)c1cccc(NC(=O)OCC2c3ccccc3-c3ccccc32)c1", "note": "[Compound 6, (OC-6-44)-Acetato[3-(3-(fmoc-amino)-benzamido)-propanoato]-diammine-dichlorido-platinum(IV)]", "values": [{"measurement": "apoptosis in multicellular spheroids", "setting": "[1]", "result": "apoptotic death was evidenced"}, {"measurement": "ratio IC50 (cisplatin)/IC50 (Pt(IV) complex), MSTO-211H", "setting": "[2]", "result": 1.6}, {"measurement": "IC50", "setting": "[2]; mean ± sd, read-out: IC50 MSTO-211H", "result": "690 ± 30", "unit": "nM"}, {"measurement": "ratio IC50 (cisplatin)/IC50 (Pt(IV) complex), BR95", "setting": "[3]", "result": 2.6}, {"measurement": "IC50", "setting": "[3]; mean ± sd", "result": "830 ± 40", "unit": "nM"}, {"measurement": "Pt Uptake", "setting": "[4]", "result": "10.64 ± 1.77", "unit": "ng Pt per 10^6 Cells"}, {"measurement": "ratio IC50 (cisplatin)/IC50 (Pt(IV) complex), REN", "setting": "[5]", "result": 1.9}, {"measurement": "IC50", "setting": "[5]; mean ± sd", "result": "1590 ± 70", "unit": "nM"}]}]}
